Measured values reported in patent US20220202799A1, “PHARMACEUTICAL FORMULATIONS CONTAINING P2Y14 ANTAGONISTS” (priority 2019, published 2022).
Values joined by “and” are separate entries in the source; they are usually repeats but may differ in a detail not shown here. Identical values can stand only once. Marks after values point to notes of the source that are not given here.

How the values were obtained:
[1] = TPGS enhancement of solubility of PPTN at neutral pH; format: physicochemical
Procedure: α-Tocopherol polyethylene glycol succinate (TPGS) was tested for enhancement of solubility of PPTN at neutral pH. A solution containing 5 mg/mL PPTN and 4% TPGS was made by mixing components as indicated in Table 5 with stirring and heating.
To create a solution suitable for in vitro studies, the solution containing 5 mg/mL PPTN and 4% TPGS created above was diluted into phosphate-buffered saline by mixing components as indicated in Table 6.

[2] = Loss of PPTN due to adherence to surfaces of vessels; format: physicochemical; conditions: 200 ng/ml PPTN, no solubilizing agent, 24 hours
Procedure: The loss of PPTN due to adherence to surfaces of vessels was analyzed. PPTN is a hydrophobic compound that may adhere to plastics and other surfaces. To test how much PPTN is lost due to surface adhesion, an aqueous solution containing 200 ng/ml PPTN and less than 0.1% acetonitrile was incubated in the absence of solubilizing agent in various vessels for 24 hours. […]

[3] = Solubility of PPTN in SBECD-containing saline solutions; format: physicochemical; conditions: 9 mg/mL PPTN (HCl salt) in 12% SBECD/saline; room temperature for 28 days
Procedure: Sulfobutylether-β-cyclodextrin (SBECD) was tested for the ability to increase the solubility of PPTN in aqueous media.
A stock solution containing 12% SBECD was prepared as follows: 9 mL of saline was added to 1.21 g of SBECD in a 10 mL flask, and the mixture was sonicated for 5 minutes. Saline was then added to achieve a final volume of 10 mL. The pH of the final solution was about 7.
The solubility of PPTN in solutions containing various concentrations of SBECD was analyzed. Excess PPTN was added to saline solutions containing various concentrations of SBECD, insoluble material was removed by filtration, and the PPTN concentration in the filtered solution was analyzed.
A solution containing 9 mg/mL PPTN was prepared as follows. 4.7 mL of 12% SBECD solution, prepared as described above, was added to a 5 mL flask containing 45 mg PPTN (HCl salt), and the mixture was sonicated with heat for 50 minutes. After sonication, 12% SBECD solution to achieve a final volume of 5 mL. The warm solution appeared clear. The solution was allowed to cool to room temperature and was incubated at room temperature for 28 days.

[4] = Stability of PPTN in SBECD-containing solution under various storage conditions (UHPLC-UV); format: physicochemical; conditions: 9 mg/mL PPTN, 12% SBECD; for [PPTN]: in mg/mL
Procedure: The stability of PPTN in SBECD-containing solutions was analyzed under various storage conditions. 20-mL glass vials containing 10 mL of a solution containing 9 mg/mL PPTN and 12% SBECD, as described above, were incubated under various conditions as described in Table 10.
Samples were analyzed by UHPLC-UV as described in Table 11.

[5] = Potency and purity of diluted dosing solutions after manufacture and shipping; format: physicochemical; conditions: for [KB-1801] determined by HPLC assay: shipped at ambient temperature
Procedure: The stability of high-concentration PPTN solutions containing SBECD were analyzed under conditions used for product manufacturing and distribution. A stock solution containing 8.6 mg/mL PPTN, 12% SBECD in saline was prepared as described above and shipped under refrigerated conditions. Seven days after manufacture, the stock solution was diluted to make dosing solutions for administration as a continuous intravenous infusion as indicated in Table 14 and Table 15.
Samples of diluted dosing solutions were shipped at ambient temperature and analyzed for PPTN (KB-1801) potency and purity.

[6] = Plasma pharmacokinetics after single bolus intravenous injection; format: in vivo; conditions: male rats; single bolus intravenous injection 0.85, 2.9 or 8.5 mg/kg; SBECD solution
Procedure: The pharmacokinetics of PPTN (KB-1801) in male rats receiving single bolus intravenous injections of SBECD-containing solutions were analyzed. Three cohorts of four rats each were given a single dose of PPTN (KB-1801) at 0.85 mg/kg, 2.9 mg/kg, or 8.5 mg/kg in 1 mL dosing volume.

[7] = Urine concentrations, 24-hour continuous intravenous infusion; format: in vivo, Sprague-Dawley rats; conditions: for Total amount in urine: all intervals; for Total amount in urine / Amount in urine: individual animals
Procedure: The safety and pharmacokinetics of PPTN (KB-1801) in rats receiving continuous intravenous injections of SBECD-containing solutions were analyzed. Three cohorts of six male and six female rats each were given continuous intravenous infusion of PPTN (KB-1801) at 10 mg/kg/day, 30 mg/kg/day or 100 mg/kg/day in a dosing solution containing PPTN at 0.25 mg/mL, 0.75 mg/mL or 2.5 mg/mL and SBECD at about 3.8%. Dosing volume was 40 mIkg/day.

[8] = dosing solution, targeted [KB-1801] 0.25 mg/mL
[9] = dosing solution, targeted [KB-1801] 0.75 mg/mL
[10] = dosing solution, targeted [KB-1801] 2.5 mg/mL

O=C(O)c1cc(-c2ccc(C3CCNCC3)cc2)c2ccc(-c3ccc(C(F)(F)F)cc3)cc2c1 [KB-1801, 4-[4-(piperidin-4-yl)phenyl]-7-[4-(trifluoromethyl)phenyl]-2-naphthoic acid]
Solution pH (final) ([1]; 100 μM KB-1801, 0.04 wt % TPGS in buffered saline): Final pH: 7.4
Solution appearance ([1]; 100 μM KB-1801, 0.04 wt % TPGS in buffered saline (5 mg/ml solution diluted 100x)): Resulting clear solution
Solution appearance ([1]; 5 mg/mL KB-1801, 4 wt % TPGS, after phosphate buffer 20 mM pH 8.3): Resulting clear
Solution pH (final) ([1]; 5 mg/mL KB-1801, 4 wt % TPGS, phosphate buffer, buffered saline): Final pH: 7.0-7.4
Solution appearance ([1]; 5 mg/mL KB-1801 with TPGS solution, 4 wt %, stirring and heating): Resulting clear
% recovery vs. control ([2]; Corning pipette tip): 22%
% recovery vs. standard ([2]; Corning pipette tip): 6%
% recovery vs. control ([2]; Eppendorf clear conical tube): 19%
% recovery vs. standard ([2]; Eppendorf clear conical tube): 5%
% recovery vs. control ([2]; Eppendorf orange conical tube): 25%
% recovery vs. standard ([2]; Eppendorf orange conical tube): 6%
% recovery vs. control ([2]; Versilon SE200 Tygon tubing): 8%
% recovery vs. standard ([2]; Versilon SE200 Tygon tubing): 2%
% recovery vs. control ([2]; polyetheretherketone tubing): 22%
% recovery vs. standard ([2]; polyetheretherketone tubing): 6%
Solution appearance [3]: remained clear throughout the entire incubation
[PPTN] ([4]; 2-5° C., 1d): 8.74
[PPTN] ([4]; 2-5° C., 7d): 8.69
[PPTN] ([4]; 2-5° C., 14d): 8.98
[PPTN] ([4]; 2-5° C., 28d): 8.65
[PPTN] ([4]; 25° C., 0d): 8.72
[PPTN] ([4]; 25° C., 1d): 8.75
[PPTN] ([4]; 25° C., 7d): 8.82
[PPTN] ([4]; 25° C., 14d): 8.69
[PPTN] ([4]; 25° C., 28d): 8.71
[PPTN] ([4]; 40° C., 1d): 8.71
[PPTN] ([4]; 40° C., 7d): 8.71
[PPTN] ([4]; 40° C., 14d): 9.25**
[PPTN] ([4]; 40° C., 28d): 8.73
Degradants in UHPLC-UV trace ([4]; 40° C., 28 days): No degradants were evident
[PPTN] ([4]; 50° C., 1d): 8.78
[PPTN] ([4]; −20° C., 1d (freeze/thaw)): 9.0*
Concentration higher than target concentrations ([5]; all dosing solution samples): 1.6-8.0%
Degradation products ([5]; all dosing solution samples): No evidence of degradation products was observed in any sample
Impurity profile by HPLC area % [5, 8]: No imp > 0.10 a %
[KB-1801] determined by HPLC assay [5, 8]: 0.27 mg/mL and 0.26 mg/mL
Impurity profile by HPLC area % [5, 9]: No imp > 0.10 a %
[KB-1801] deviation from targeted concentration [5, 9]: +1.3%
[KB-1801] determined by HPLC assay [5, 9]: 0.76 mg/mL
Impurity profile by HPLC area % [5, 10]: No imp > 0.10 a %
[KB-1801] determined by HPLC assay [5, 10]: 2.56 mg/mL and 2.57 mg/mL
PK parameters, relation to dose [6]: linearly dose-related
Pharmacokinetics of plasma PPTN, model [6]: well-described by a 2-compartment model
Total amount in urine ([7]; 24-hour IV infusion 10 mg/kg, female rats): 6.29 µg and 1.92 µg and 6.27 µg and 24.6 µg and 20.3 µg and 2.33 µg
Amount in urine ([7]; 24-hour IV infusion 10 mg/kg, female rats, interval 0-4 h): 0.16 µg and 0.14 µg and 0.81 µg and 4.98 µg and 2.11 µg
Amount in urine ([7]; 24-hour IV infusion 10 mg/kg, female rats, interval 4-9 h): 5.74 µg and 1.32 µg and 11.2 µg and 0.05 µg and 0.23 µg
Amount in urine ([7]; 24-hour IV infusion 10 mg/kg, female rats, interval 9-24 h): 0.39 µg and 0.46 µg and 5.46 µg and 13.4 µg and 15.3 µg
Total amount in urine ([7]; 24-hour IV infusion 30 mg/kg, female rats): 22.6 µg and 2.00 µg and 6.83 µg and 40.2 µg and 30.9 µg and 57.2 µg
Amount in urine ([7]; 24-hour IV infusion 30 mg/kg, female rats, interval 0-4 h): 8.76 µg and 2.00 µg and 0.003 µg and 7.08 µg and 0.71 µg
Amount in urine ([7]; 24-hour IV infusion 30 mg/kg, female rats, interval 4-9 h): 9.17 µg and 16.2 µg and 22.6 µg and 29.6 µg
Amount in urine ([7]; 24-hour IV infusion 30 mg/kg, female rats, interval 9-24 h): 27.6 µg and 4.65 µg and 6.83 µg and 17.0 µg and 7.56 µg
Total amount in urine ([7]; 24-hour IV infusion 30 mg/kg, male rats): 61.7 µg and 63.3 µg and 9.64 µg and 18.1 µg and 243.3 µg and 31.4 µg
Amount in urine ([7]; 24-hour IV infusion 30 mg/kg, male rats, interval 0-4 h): 0.01 μg (3×) and 2.03 μg and 0.001 μg and 33.9 μg
Amount in urine ([7]; 24-hour IV infusion 30 mg/kg, male rats, interval 4-9 h): 26.0 µg and 43.8 µg and 5.65 µg and 0.003 µg and 11.8 µg and 21.8 µg
Amount in urine ([7]; 24-hour IV infusion 30 mg/kg, male rats, interval 9-24 h): 9.64 µg and 35.7 µg and 17.4 µg and 3.98 µg and 18.1 µg and 197.6 µg
Total amount in urine ([7]; 24-hour IV infusion 100 mg/kg, female rats): 45.8 µg and 48.8 µg and 64.7 µg and 43.0 µg and 149.9 µg and 171.6 µg
Amount in urine ([7]; 24-hour IV infusion 100 mg/kg, female rats, interval 0-4 h): 0.02 µg and 0.01 µg and 9.75 µg and 3.61 µg and 25.6 µg and 10.7 µg
Amount in urine ([7]; 24-hour IV infusion 100 mg/kg, female rats, interval 4-9 h): 1.83 µg and 19.3 µg and 5.96 µg and 0.01 µg and 27.4 µg
Amount in urine ([7]; 24-hour IV infusion 100 mg/kg, female rats, interval 9-24 h): 133.5 µg and 43.9 µg and 48.8 µg and 35.7 µg and 33.4 µg and 124.3 µg
Total amount in urine ([7]; 24-hour IV infusion 100 mg/kg, male rats): 239.6 µg and 82.2 µg and 0.001 µg and 186.8 µg and 228.4 µg and 526.5 µg
Amount in urine ([7]; 24-hour IV infusion 100 mg/kg, male rats, interval 0-4 h): 0.12 µg and 40.8 µg and 51.3 µg
Amount in urine ([7]; 24-hour IV infusion 100 mg/kg, male rats, interval 4-9 h): 33.6 µg and 26.0 µg and 0.001 µg and 24.1 µg and 32.1 µg and 71.5 µg
Amount in urine ([7]; 24-hour IV infusion 100 mg/kg, male rats, interval 9-24 h): 403.7 µg and 206.0 µg and 56.1 µg and 162.6 µg and 155.6 µg
Total amount in urine, individual animal ([7]; male Sprague-Dawley rats, 24-hour intravenous infusion at 10 mg/kg, 0-24 h, 10 mg/kg): 45.5 µg and 49.8 µg and 14.8 µg and 67.4 µg and 19.0 µg and 3.25 µg
Amount in urine, individual animal ([7]; male Sprague-Dawley rats, 24-hour intravenous infusion at 10 mg/kg, time interval 0-4 h, 10 mg/kg): 5.36 µg and 2.11 µg and 2.02 µg and 11.1 µg and 0.03 µg
Amount in urine, individual animal ([7]; male Sprague-Dawley rats, 24-hour intravenous infusion at 10 mg/kg, time interval 4-9 h, 10 mg/kg): 4.47 µg and 0.35 µg and 6.15 µg and 0.52 µg
Amount in urine, individual animal ([7]; male Sprague-Dawley rats, 24-hour intravenous infusion at 10 mg/kg, time interval 9-24 h, 10 mg/kg): 3.23 µg and 35.7 µg and 47.3 µg and 6.64 µg and 56.3 µg and 18.5 µg
Urine concentration compared with plasma ([7]; rats, continuous intravenous infusion for 24 or 72 hours): generally in excess of plasma concentrations
